{"source": "patent US6743947B1", "about": "“Electrochemically stable onium salts and electrolytes containing such for electrochemical capacitors” (The United States of America as represented by the …, priority 1999, dated 2004)", "origin": "cited, not measured here", "key": {"[1]": {"conditions": "room temperature"}}, "note": "Like-named read-outs stand apart in the source and are kept apart here."}
{"smiles": "CC[N+](CC)(CC)CC.F[B-](F)(F)F", "note": "[Et4NBF4, tetraethylammonium tetrafluoroborate]", "values": [{"measurement": "conductivity", "setting": "[1]; in AN, 1.4 M", "result": "about 50 mS/cm"}, {"measurement": "conductivity", "setting": "[1]; in PC, 0.65 M", "result": 8.8, "unit": "mS/cm"}, {"measurement": "saturated salt concentration", "setting": "in acetonitrile (AN), room temperatures", "result": "about 1.68 M"}, {"measurement": "saturated concentration", "setting": "in propylene carbonate (PC), room temperature", "result": 0.86, "unit": "M"}]}
